As a reminder, the IC50 is the concentration needed to halve the response being measured.

The assay deals with T1, Human DGAT1 (Homo sapiens, UniProt O75907).
T1 construct: made in house; host or cells: Pichia pastoris (printed 'Pichia pastris'), vector pPICZA; membrane fraction
T1 sequence (O75907 1-488): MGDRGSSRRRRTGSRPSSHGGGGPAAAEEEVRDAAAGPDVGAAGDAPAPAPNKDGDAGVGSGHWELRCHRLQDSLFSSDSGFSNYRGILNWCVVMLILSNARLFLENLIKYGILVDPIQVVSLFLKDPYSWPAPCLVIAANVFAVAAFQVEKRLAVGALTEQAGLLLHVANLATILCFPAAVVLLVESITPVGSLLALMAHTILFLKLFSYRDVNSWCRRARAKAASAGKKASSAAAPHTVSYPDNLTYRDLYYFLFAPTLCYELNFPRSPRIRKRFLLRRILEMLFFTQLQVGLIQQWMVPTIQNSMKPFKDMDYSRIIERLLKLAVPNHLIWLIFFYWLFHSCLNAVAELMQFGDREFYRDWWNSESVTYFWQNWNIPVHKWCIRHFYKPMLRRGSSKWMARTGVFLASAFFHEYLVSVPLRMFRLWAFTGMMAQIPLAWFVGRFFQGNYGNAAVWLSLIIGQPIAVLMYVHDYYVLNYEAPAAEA
The experiment in a line: DGAT1 Inhibitory Activity Test. It counts as biochemical. To be noted: DGAT1-expressed yeast membrane fraction, [14C]-oleoyl-CoA, room temperature 30 minutes. How it is done:
Cloning of Human DGAT1 Gene and Expression in Yeast
Human DGAT1 genes were amplified by PCR using primers described below from human cDNA library (Clontech).
The amplified human DGAT1 genes were introduced into a yeast expression vector pPICZA (Invitrogen). The resultant expression plasmid was introduced into an yeast (Pichia pastris) by electroporation to produce a recombinant yeast. The recombination yeast was cultured in the presence of 0.5% methanol for 72 hours, and the cells were crushed using glass beads in 10 mM Tris pH 7.5, 250 mM sucrose and 1 mM EDTA, followed by adjusting the membrane fraction by centrifugation to use the adjusted membrane fraction as an enzyme source.
To the reaction liquid having the following composition: 100 mM Tris pH 7.5, 100 mM MgCl2, 100 mM sucrose, 40 μM dioelin, 15 μM [^14C]-oleoyl-CoA, 0.25 μg of test substance, DGAT1-expressed yeast membrane fraction, was added, and the mixture having a volume of 100 μl was incubated at room temperature for 30 minutes. To the reaction liquid, 100 μl of 2-propanol/heptan/H2O (80:20:2) was added, the mixture was stirred well, followed by adding 200 μl of heptane and further stirring the mixture. After centrifugation, the heptane layer was collected, ethanol/0.1N NaOH/H2O (50:5:45) was added, the mixture was thus stirred, followed by re-centrifuging the mixture and collecting the heptane layer. After exsiccation of the resultant heptane layer, 100 μl of Microscint 0 (PerkinElmer) was added, and the radioactivity was measured with a liquid scintillation counter. The inhibitory activity was calculated from the following formula:
Inhibition rate=100−(radioactivity in case of addition of test compound−background)/(radioactivity in case of addition of no test compound−background)×100 wherein the background means the radioactivity in case of addition of no membrane fraction.
As to `CN1C(=O)C(NC(=O)C(C)(C)NC(=O)c2ccc(F)cc2)N=C(Cc2ccc(OC(F)(F)F)cc2)c2cc(F)ccc21` (single isomer, unassigned) [Example 1 Enantiomer A, 4-fluoro-N-[2-({7-fluoro-1-methyl-2-oxo-5-[4-(trifluoromethoxy)benzyl]-2,3-dihydro-1H-1,4-benzodiazepin-3-yl}amino)-1,1-dimethyl-2-oxoethyl]benzamide], the IC50 was 483 nM. As for `CN1C(=O)C(NC(=O)C(C)(C)NC(=O)c2ccc(F)cc2)N=C(Cc2ccc(OC(F)(F)F)cc2)c2cc(F)ccc21` (single isomer, unassigned) [Example 1 Enantiomer B, 4-fluoro-N-[2-({7-fluoro-1-methyl-2-oxo-5-[4-(trifluoromethoxy)benzyl]-2,3-dihydro-1H-1,4-benzodiazepin-3-yl}amino)-1,1-dimethyl-2-oxoethyl]benzamide], the IC50 amounted to 133 nM.

As for `CN1C(=O)C(NC(=O)C(C)(C)NC(=O)c2ccccc2)N=C(Cc2ccc(OC(F)(F)F)cc2)c2cc(F)ccc21` (single isomer, unassigned) [Example 2 Enantiomer A, N-[2-({7-fluoro-1-methyl-2-oxo-5-[4-(trifluoromethoxy)benzyl]-2,3-dihydro-1H-1,4-benzodiazepin 3-yl}amino)-1,1-dimethyl-2-oxoethyl]benzamide], the IC50 came to 569 nM.

Regarding `CN1C(=O)C(NC(=O)C(C)(C)NC(=O)c2ccccc2)N=C(Cc2ccc(OC(F)(F)F)cc2)c2cc(F)ccc21` (single isomer, unassigned) [Example 2 Enantiomer B, N-[2-({7-fluoro-1-methyl-2-oxo-5-[4-(trifluoromethoxy)benzyl]-2,3-dihydro-1H-1,4-benzodiazepin 3-yl}amino)-1,1-dimethyl-2-oxoethyl]benzamide], the concentration for half-maximal inhibition (IC50) is 164 nM. Consider `CN1C(=O)C(NC(=O)C(C)(C)NC(=O)c2ccc(F)cc2)N=C(Cc2ccc(OC(F)(F)F)cc2)c2ccccc21` (single isomer, unassigned) [Example 3 Enantiomer A, N-[1,1-dimethyl-2-({1-methyl-2-oxo-5-[4-(trifluoromethoxy)benzyl]-2,3-dihydro-1H-1,4-benzodiazepin-3-yl}amino)-2-oxoethyl]-4-fluorobenzamide], for which the IC50 worked out at 181 nM. In the case of `CN1C(=O)C(NC(=O)C(C)(C)NC(=O)c2ccc(F)cc2)N=C(Cc2ccc(OC(F)(F)F)cc2)c2ccccc21` (single isomer, unassigned) [Example 3 Enantiomer B, N-[1,1-dimethyl-2-({1-methyl-2-oxo-5-[4-(trifluoromethoxy)benzyl]-2,3-dihydro-1H-1,4-benzodiazepin-3-yl}amino)-2-oxoethyl]-4-fluorobenzamide] it was 125 nM; in that of `CN1C(=O)C(NC(=O)C(C)(C)NC(=O)c2ccccc2)N=C(Cc2ccc(OC(F)(F)F)cc2)c2ccccc21` (single isomer, unassigned) [Example 4 Enantiomer A, N-[1,1-dimethyl-2-({1-methyl-2-oxo-5-[4-(trifluoromethoxy)benzyl]-2,3-dihydro-1H-1,4-benzodiazepin-3-yl}amino)-2-oxoethyl]benzamide], 308 nM; in that of `CN1C(=O)C(NC(=O)C(C)(C)NC(=O)c2ccccc2)N=C(Cc2ccc(OC(F)(F)F)cc2)c2ccccc21` (single isomer, unassigned) [Example 4 Enantiomer B, N-[1,1-dimethyl-2-({1-methyl-2-oxo-5-[4-(trifluoromethoxy)benzyl]-2,3-dihydro-1H-1,4-benzodiazepin-3-yl}amino)-2-oxoethyl]benzamide], 127 nM.

These data come from patent publication US20120015938A1, “1,4-BENZODIAZEPIN-2-ON DERIVATIVES” (MSD K.K., priority 2009, published 2012).
